# Assay results as given in US7763287B2, “Extract of Cercis chinensis having anti-oxidant activity and anti-aging activity, and cosmetical composition containing the extract for anti-oxidation, skin-aging protection and wrinkle improvement” (Hankook Pharm. Co., Inc., priority 2002, dated 2010).
# Columns and labels:
# [1] = DPPH radical scavenging activity; assay type: biochemical; conditions: for DPPH radical scavenging activity IC50: Table 3
# Procedure: In order to extract an effective ingredient having an anti-oxidant activity from Cercis chinensis, an experiment was performed following the procedure represented in a schematic diagram of FIG. 1. Particularly, 1 kg of leaves and stems of Cercis chinensis, dried in shadow, were grinded to powder using a pulverizer, which was extracted by ethanol (EtOH) at room temperature twice at intervals of two weeks. For the extraction, ethanol solutions were prepared by adding ethanol gradually, 10% at a time, from 0% to 100%. The prepared ethanol solutions were used for the extraction. […] But, it looses absorbance when being scavenged. Based on that point, an anti-oxidant activity can be measured using DPPH. […] Then, each solution was distributed into a 96 well plate by 10 μl each, into which 190 μl of DPPH(Sigma, St. Louis, Mo, USA) solution whose ethanol concentration was 2×10^−4 M/ml was added. The plate was just left at room temperature for 30 minutes. Finally, OD517 was measured at 517 nm. For a control, DMSO was added instead of the sample, and changes of optical density were investigated. […] DDPH Radical Scavenging Activity (%)=(Acontrol−Asample)/(Acontrol)×100 <Mathematica Formula 1>
# Acontrol: Optical density of control group (sample was not added),
# Asample: Optical density of experimental group (sample was added).
# In order to identify a fraction having an anti oxidant activity among hexane Fr, EtOAc Fr and BuOH Fr obtained above, a DPPH radical scavenging activity was measured using each extract of each fraction following the method used above. At this time, vitamin E, known to have high DPPH radical scavenging activity, was used as a comparing group.
# At this time, BHA (tert-butyl-4 hydroxyanisole) and α-tocopherol, synthetic anti-oxidant agents, were used as positive controls.
# [2] = Hydroxyl radical scavenging activity (deoxyribose/TBA, method of Halliwell); assay type: biochemical; conditions: for Hydroxyl radical scavenging activity (%): 10 μg of sample, total volume 1 ml
# Procedure: Hydroxyl radical (HO.) is generated by the reaction of a metal ion or a superoxide radical. Owing to its strong reactivity, hydroxyl radical causes oxidative damages to DNA, protein and lipid in vivo. Nitric oxide (NO.) is reacted with a superoxide radical to generate a peroxy nitrite (ONOO—), also having strong reactivity. […] Particularly, each compound was mixed with 10 μg of a sample dissolved in DMSO, phosphate buffer (20 mM, pH 7.4) 5.6 mM deoxyribose, 0.1 mM FeCl3, 1 mM H2O2 and 0.1 mM ascorbic acid, making total volume 1 ml, which was then reacted at 37° C. for 60 minutes. 250 μl of 20% TCA and 250 μl of 1% TBA solution (dissolved in 50 mM NaOH) were added to the reaction solution, followed by thermal reaction at 95° C. for 5 minutes. After completing the reaction, OD532 was measured. Hydroxyl radical scavenging activity was calculated by the below
# <Mathematical Formula 3>. BHA and α-tocopherol were used for a positive control. Hydroxyl Radical Scavenging Activity (%)=(Acontrol−Asample)/(Acontrol−Ablank)×100 <Mathematical Formula 3>
# Acontrol: Optical density of control group well (sample was not added),
# Asample: Optical density of experimental group well (sample was added),
# Ablank: Optical density of well not added with sample, TCA and TBA
# [3] = Nitric oxide scavenging activity; assay type: biochemical; set-up: Nitric oxide scavenging activity (%): concentration or dose not given beside the values
# [4] = Superoxide radical scavenging activity (xanthine/xanthine oxidase, NBT); assay type: biochemical; conditions: Table 6
# Procedure: Superoxide radical (O^2−) itself has a little reactivity, but is easily changed into H2O2 that generates hydroxyl radical having strong reactivity or is reacted with nitric oxide (NO.) to generate peroxy nitrite (ONOO^−) having strong reactivity, too. Thus, it might be a reason for oxidation of SH-group, nitration of protein tyrosine, lipid peroxidation and DNA damage. […] Basically, measurement of superoxide radical scavenging activity was performed by investigating the activity of superoxide dismutase (SOD), an enzyme scavenging superoxide by dismutation of the same. In the present invention, an activity of a sample to inhibit superoxide production by the enzyme reaction of xanthine/xanthine oxidase and its another activity to inhibit reaction (NBT+20^2−→NBTH2+2O2) generating formazan by reduction of nitro blue tetrazolium (referred as ‘NBT’ hereinafter) were measured. Particularly, wells of a 96-well plate were supplemented with 50 μl of 4 mM xanthine (Sigma), 50 μl of […] NBT (Sigma), 50 μl of 50 mM phosphate buffer (pH 7.8, 1 mM EDTA) and 10 μl of each sample, into which 40 μl of xanthine oxidase was added to induce a reaction. After the reaction was completed, each reaction solution was collected as scheduled, and OD550 was measured with an ELISA reader. […] Superoxide Radical Scavenging Activity (%)=(Acontrol−Asample)/(Acontrol−Ablank)×100 <Mathematical Formula 4> […]
# [5] = system: HEK-N/F cells; test: Protection of cells from oxidative damage induced by t-butylhydroperoxide; assay type: cell-based, human; conditions: 1.5 mM t-butylhydroperoxide 3 hours; for TBARS (pmol/mg protein): compound 50.0 µg/ml
# Procedure: t-butylhydroperoxide is metabolized into a free radical intermediate as it comes in a cell, so that it causes lipid peroxidation, resulting in cell damage. This phenomenon is similar to that caused by oxidataive stress accumulated in cells and tissues. […] HEK-N/F, an epidermal cell line of a newborn baby, was treated with 1.5 mM of t-butylhydroxyperoxide for 3 hours.
# [6] = system: rat brain homogenates; test: Lipid peroxidation inhibitory activity (Fe2+/ascorbic acid, TBA method); conditions: Table 4
# [7] = system: back skin of SKH-1 hairless mouse; test: Protection of skin tissues from UVB irradiation in hairless mice; assay type: in vivo
# Procedure: 5-6 week old female hairless mice (SKH-hr 1) were raised for 14 days at 24±2° C. with 50±10% relative humidity and 12 hour day/night cycle. 30-60 minutes before the experiment, a sample was hyperdermically injected on 5 spots of the mice and the backs of the mice were irradiated by UVB. 5 mice per each group were put in a cage (20×15×5 cm) and UVB irradiation was performed using a UV lamp (HP-15M, 280-400 nm, max. 312 nm; Atto Co., Japan) at 15 cm distance by 15 kJ/m^2. After the completion of UV irradiation for 24 hours, back skin was cut and stored at −70° C. until peroxidation was measured.
# UVB irradiation causes serious lipid peroxidation in skin tissues, so measurement of the peroxided lipid content might lead to the measurement of skin damages. Particularly, UVB was irradiated on the back skin of SKH-1 hairless mouse. 48 hours later, the back skin tissues were cut to measure lipid peroxidation by thiobarbituric acid (TBA) method. The back skin of the mouse was put in a 10×50 mM K-P buffer solution for homogenation.
# Hydrogen peroxidation was also investigated. The frozen back skin section was put in 0.1 M Tris-HCl buffer solution (pH 7.5) containing 1 mg/ml of glucose and 1 mg/ml diaminobenzidine (DAB), which was cultured at 37° C. for 5-6 hours. After being washed with distilled water, the solution was stained with 2% methyl green for 60 minutes. Nucleus stained blue and DAB peroxidase (brown) were observed under a microscope.
Molecule,DPPH radical scavenging activity IC50 [1] [µg/mL],Hydroxyl radical scavenging activity (%) [2] [%],Nitric oxide scavenging activity (%) [3] [%],Superoxide radical scavenging activity IC50 [4] [µg/mL],Cell survival rate (%) [5] [%],TBARS (pmol/mg protein) [5] [pmol/mg protein],Lipid Peroxidation Inhibitory Activity IC50 [6] [µg/mL],DPPH radical scavenging activity (in words) [1],Nitric oxide scavenging activity (in words) [3],TBARS (nmol/mg protein) ([7]; treating amount 30 mg/kg + UVB irradiation),TBARS (nmol/mg protein) ([7]; treating amount 50 mg/kg + UVB irradiation),Hydroxyl radical scavenging activity (in words) [2]
"COc1cc(-c2oc3cc(O)cc(O)c3c(=O)c2O[C@@H]2O[C@H](CO[C@@H]3O[C@@H](C)[C@H](O)[C@@H](O)[C@H]3O)[C@@H](O)[C@H](O)[C@H]2O)cc(OC)c1O [Chemical Formula 14, syringetin-3-O-rutinoside]",35.1 ± 1.5,10.2,6.0 ± 0.8,45.2 ± 2.2,20.0 ± 2.6,2928.1 ± 209.9,19.0 ± 1.52,–,–,–,–,–
"Oc1cc(O)c2c(c1)O[C@H](c1ccc(O)c(O)c1)[C@@H](O)C2 [Chemical Formula 16, (+)-catechin]",15.6 ± 0.8,12.7,16.9 ± 1.1,16.5 ± 2.0,24.5 ± 1.9,1912.4 ± 112.0,4.71 ± 0.26,strong radical scavenging activity,comparatively high nitric oxide scavenging activity,–,–,–
"O=C1O[C@H]([C@@H](O)CO)C([O-])=C1OP(=O)([O-])[O-].O=C1O[C@H]([C@@H](O)CO)C([O-])=C1OP(=O)([O-])[O-].[Mg+2].[Mg+2].[Mg+2] [MAP, magnesium-L-ascorbyl-2-phosphate, reference compound]",–,–,–,–,–,–,–,–,–,0.28 ± 0.06,0.16 ± 0.05,–
(−)-epicatechin-3-O-gallate [Chemical Formula 17],6.8 ± 0.5,39.9,25.4 ± 1.2,11.9 ± 2.1,49.4 ± 6.4,1007.3 ± 95.2,2.90 ± 0.06,–,comparatively high nitric oxide scavenging activity,–,–,remarkably higher hydroxyl radical scavenging activities
(−)-epigallocatechin-3-O-gallate [Chemical Formula 18],6.7 ± 0.4,54.0,26.2 ± 0.9,24.0 ± 3.5,46.6 ± 5.9,1032.6 ± 103.5,1.00 ± 0.08,–,comparatively high nitric oxide scavenging activity,–,–,remarkably higher hydroxyl radical scavenging activities
